Data on 25 molecules can be found in PubChem BioAssay (NCI).

Each structure is given as a SMILES string.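 Growth conditions: 96-well plates. Treatment: test compound, 48 hours, 5 concentrations. Analysis: linear interpolation between bracketing concentrations; unreached endpoints set to highest concentration. GI50 = concentration required for 50% inhibition of growth. TGI denotes the concentration required for complete inhibition of growth.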

The subject of one test is A498 renal. In words: growth of human tumour cells (NCI), 48 h.
In the case of `NC1(CCCCCCCCCCC(=O)O)CNCCNCCNCCNC1`, the TGI was 46.7 µM.

In the case of `O=C1CC[C@H]2CNC(=O)C[C@H]2C1`, the TGI was > 100 µM.

For the molecule `CCOC(=O)CCCO`, the TGI was > 100 µM.

Turning to `CC1=CCCC(OC(N)=O)C1` (stereo not drawn), the TGI was > 100 µM.

As for `O=C(O)/C=C/C(=O)Nc1ncn[nH]1`, the TGI was > 100 µM.

Turning to `COc1ccc(N=Cc2cc(OC)c(OC)c(OC)c2)cc1`, the TGI is > 100 µM.

For `COC(=O)[C@@H](C)C[C@H](Cc1ccccc1)NC(=O)c1nc([C@@H](C[C@H](C(C)C)N(C)C(=O)[C@@H](NC(=O)[C@H]2CCCN2C)C(C)C)OC(C)=O)sc1C`, the GI50 was < 0.0025 µM and the TGI was determined as 0.00808 µM.

Regarding `O=C(O)Cc1c[nH]c2ccc(F)cc12`, the TGI was > 100 µM.

As for `CN(C)CCNc1nc2ccccc2c2[nH]c3ccccc3c12`, the GI50 was 5.32 µM and the TGI was 11 µM.

Regarding `OCCNCO`, the TGI was > 100 µM.

Regarding `O=C1c2ccccc2-c2c1c1cc3c(cc1c(=O)n2CCCCl)OCO3`, the GI50 was 59.8 µM and the TGI is > 100 µM.

A further test relates to HCT-116 colon. In words: growth of human tumour cells (NCI), 48 h.
Molecule `NC1(CCCCCCCCCCC(=O)O)CNCCNCCNCCNC1` displayed a TGI of 81.2 µM.

As for `NNC(=O)c1cnn(-c2ccnc3c(C(F)(F)F)cccc23)c1N`, the GI50 was > 100 µM and the TGI was > 100 µM.

As to `CC(=O)OCCc1cccnc1/C=N/O`, the TGI is > 100 µM.

Turning to `CCC1CCC2CCCC(C)N12` (stereo not drawn), the TGI is > 100 µM.

Take `O=C1CC[C@H]2CNC(=O)C[C@H]2C1`: the TGI was > 100 µM.

Consider `COc1ccc(CNC(=O)COc2ccc(/C=N/Nc3nc4ccccc4s3)cc2)cc1`, for which the GI50 was 2.25 µM and the TGI is 6.76 µM.

With `CC1=CCCC(OC(N)=O)C1` (stereo not drawn), the TGI is > 100 µM.

Turning to `c1ccc(-c2nnc(-c3nn(-c4ccccc4)c4nc5ccccc5nc34)o2)cc1`, the TGI was > 100 µM.

In the case of `O=C(O)/C=C/C(=O)Nc1ncn[nH]1`, the TGI is > 100 µM.

Regarding `O=[N+]([O-])c1ccc(NSc2ccccc2)cc1`, the TGI was > 100 µM.

`COc1ccc(N=Cc2cc(OC)c(OC)c(OC)c2)cc1`: the TGI was > 100 µM.

In the case of `COc1cc([C@@H]2c3cc4c(cc3[C@@H](NC(=O)c3cccc([N+](=O)[O-])c3)C3COC(=O)[C@@H]32)OCO4)cc(OC)c1O` (stereo partly drawn), the TGI was > 34.8 µM.

Turning to `COC(=O)[C@@H](C)C[C@H](Cc1ccccc1)NC(=O)c1nc([C@@H](C[C@H](C(C)C)N(C)C(=O)[C@@H](NC(=O)[C@H]2CCCN2C)C(C)C)OC(C)=O)sc1C`, the GI50 is < 0.0025 µM and the TGI is > 25 µM.

For `O=c1[nH]c(=O)n(C2CC(O)C(CO)O2)cc1C#Cc1c(F)c(F)c(F)c(F)c1F` (stereo not drawn), the TGI is > 100 µM.

As to `O=C(O)Cc1c[nH]c2ccc(F)cc12`, the TGI was > 100 µM.

For the molecule `COC(=O)C(CC(=O)c1cc2c(cc1I)OCO2)Cc1cc(OC)c(OC)c(OC)c1I` (stereo not drawn), the TGI was > 100 µM.

Regarding `S=C1NCCN1C1=Nc2ccccc2CO1`, the GI50 was > 100 µM and the TGI is > 100 µM.

Consider `CN(C)CCNc1nc2ccccc2c2[nH]c3ccccc3c12`, for which the GI50 is 0.106 µM and the TGI worked out at 2.25 µM.

As for `OCCNCO`, the TGI was > 100 µM.

On to `Clc1cccc(NC=Nc2ccc(-c3nc4ccccc4s3)cc2)c1`, for which the GI50 is 11 µM and the TGI came out at 24.1 µM.

Regarding `O=C1c2ccccc2-c2c1c1cc3c(cc1c(=O)n2CCCCl)OCO3`, the GI50 was 17.7 µM and the TGI is 90.1 µM.

Regarding `COc1nc2c(cc1S(=O)(=O)c1ccccc1)CCc1c-2cnn1-c1ccccc1Cl`, the GI50 is 5.31 µM and the TGI was > 100 µM.

Turning to `CC(C)(C)C1=NC(S)NC(CCC(=O)Nc2ccccc2[N+](=O)[O-])=C1` (stereo not drawn), the TGI is > 100 µM.

Another test deals with KM12 colon. In words: growth of human tumour cells (NCI), 48 h.
In the case of `NC1(CCCCCCCCCCC(=O)O)CNCCNCCNCCNC1`, the TGI is > 100 µM.

`NNC(=O)c1cnn(-c2ccnc3c(C(F)(F)F)cccc23)c1N`: the GI50 was > 100 µM and the TGI was > 100 µM.

For `CC(=O)OCCc1cccnc1/C=N/O`, the TGI was > 100 µM.

Turning to `CCC1CCC2CCCC(C)N12` (stereo not drawn), the TGI was > 100 µM.

Turning to `O=C1CC[C@H]2CNC(=O)C[C@H]2C1`, the TGI was > 100 µM.

For the molecule `COc1ccc(CNC(=O)COc2ccc(/C=N/Nc3nc4ccccc4s3)cc2)cc1`, the GI50 was 2.51 µM and the TGI was > 100 µM.

In the case of `CCOC(=O)CCCO`, the TGI is > 100 µM.

Regarding `CC1=CCCC(OC(N)=O)C1` (stereo not drawn), the TGI is > 100 µM.

`c1ccc(-c2nnc(-c3nn(-c4ccccc4)c4nc5ccccc5nc34)o2)cc1`: the TGI was > 100 µM.

On to `O=C(O)/C=C/C(=O)Nc1ncn[nH]1`, for which the TGI is > 100 µM.

As for `O=[N+]([O-])c1ccc(NSc2ccccc2)cc1`, the TGI was > 100 µM.

Regarding `COc1ccc(N=Cc2cc(OC)c(OC)c(OC)c2)cc1`, the TGI was > 100 µM.

`COc1cc([C@@H]2c3cc4c(cc3[C@@H](NC(=O)c3cccc([N+](=O)[O-])c3)C3COC(=O)[C@@H]32)OCO4)cc(OC)c1O` (stereo partly drawn) came in with a TGI of 10.8 µM.

For the molecule `COC(=O)[C@@H](C)C[C@H](Cc1ccccc1)NC(=O)c1nc([C@@H](C[C@H](C(C)C)N(C)C(=O)[C@@H](NC(=O)[C@H]2CCCN2C)C(C)C)OC(C)=O)sc1C`, the GI50 was < 0.0025 µM and the TGI was > 25 µM.

Turning to `O=c1[nH]c(=O)n(C2CC(O)C(CO)O2)cc1C#Cc1c(F)c(F)c(F)c(F)c1F` (stereo not drawn), the TGI is > 100 µM.

Consider `O=C(O)Cc1c[nH]c2ccc(F)cc12`, for which the TGI is > 100 µM.

On to `COC(=O)C(CC(=O)c1cc2c(cc1I)OCO2)Cc1cc(OC)c(OC)c(OC)c1I` (stereo not drawn), for which the TGI is > 100 µM.

As for `S=C1NCCN1C1=Nc2ccccc2CO1`, the GI50 is > 100 µM and the TGI is > 100 µM.

`OCc1c(-c2cccc3ccccc23)sc(-c2cccc3ccccc23)c1CO` displayed a TGI of 26.4 µM.
